From patent US20250186592A1, “TETRAZINE CONJUGATES FOR IN VIVO TARGETED DELIVERY OF A PAYLOAD” (Tambo, Inc., priority 2021, published 2025)
Square brackets hold non-standard residues; d marks the D form. Peptide text beside a SMILES is read from it. * marks the point of attachment. Dolaproine = CO[C@@H]([C@@H]1CCCN1)[C@@H](C)C(=O)O; Dil = CC[C@H](C)[C@H](NC)[C@@H](CC(=O)O)OC; X1 = C[C@@H](N*)[C@@H](O)c1ccccc1; NMeV = CN[C@H](C(=O)O)C(C)C

What was measured:
[1] = LCMS analysis of drug release by tetrazines; conditions: tetrazine 20 μM, TCO-MMAE 10 μM in PBS
Protocol: A solution of each tetrazine (20 μM final concentration) in PBS is mixed with TCO-MMAE (10 μM final concentration). The solution is mixed thoroughly and an aliquot removed at the appropriate time for analysis by LCMS.

[2] = system: NCI-N87 xenograft; experiment: Efficacy study in subcutaneous NCI-N87 xenograft model in CB17 SCID mice; format: in vivo, mice (Mus musculus); conditions: for TGI: P<0.05 vs vehicle; for mean tumor size on day 35: vehicle 1009 mm^3
Protocol: Methods: 110 CB17 SCID female mice (Mus musculus; age: 6-8 weeks; body weight: 18-22 g; Shanghai LingChang Biotech Co., LTD) were inoculated subcutaneously at right flank with NCI-N87 cells (3×10^6 cells was suspended in 0.2 mL mixture of 1640 with (1640: Matrigel=1:1) BD Matrigel for tumor development). After 7 days inoculation, 70 animals were divided into 8 groups with 10 animals in group 1, 2, 5, 6, 7 and 8, and with 5 animals in group 3 and 4 using stratified random grouping based on their body weight and tumor volume. The treatments were started from the mean tumor size reached to 158 mm^3 (106-221 mm^3) for these 70 mice. Group 1: Vehicle, i.v., QD×3×2 weeks. Group 2: MMAE, 0.25 mpk, i.v., QW×2 weeks. […] Group 4: Compound A, 20 mpk, i.v., QD×3×2 weeks. […] Group 7: SQL70, 100 μL, i.t.×1 dose+Compound A, 1.9 mpk, i.v., QD×5. Group 8: T-DM1, 3 mpk, i.v., QW×2 weeks. The tumor sizes and body weight were measured twice a week during the treatment. The dosing schedule was finished on day PG-D10. The entire study was terminated on PG-D37 and collected all the tumor samples for group 5 and 6, and 3 tumors/group for group 1 and 2.
Experimental Methods and Procedures: Cell preparation and implantation: The NCI-N87 (Gastric carcinoma, ATCC® CRL-5822™, Lot No. 7686255) cells were maintained in vitro as a monolayer culture in RPMI-1640 medium supplemented with 10% heat inactivated fetal bovine serum, 100 U/mL penicillin and 100 μg/mL streptomycin at 37° C. in an atmosphere of 5% CO2 in air. The tumor cells were routinely sub-cultured per 5 days by trypsin-EDTA treatment. The cultured NCI-N87 cells were harvested, re-suspended in base medium at a density of 1.5×10^7 cells/mL with viability >90%. Each mouse was inoculated subcutaneously at the right flank with 3×10^6 in 0.2 mL mixture of 1640 with (1640: Matrigel=1:1) BD Matrigel for tumor development.
Randomization and administration: The treatments were started from the mice were grouped based on their mean tumor size reached 158 mm^3 (106-221 mm^3) for group 1-8. Each group consisted of 10 or 5 mice. The test article was administrated to the mice according to the regimen as shown in the experimental design table (Table 4).
Tumor Measurements and Endpoints: The major endpoint is to see if the tumor growth can be delayed or mice can be cured. […] The tumor sizes were then used for the calculations of both tumor growth inhibition (TGI) values.
The T/C value (in percent) is an indication of antitumor effectiveness, T/C (%)=RTVTreatment/RTVControl×100% (RTVTreatment: the mean RTV of the treatment group; RTVControl: the mean RTV of the vehicle treated group). RTV (relative tumor volume)=TVDayN/TVDay0. TVDayN and TVDay0 is the tumor volume on day N and Day 0 respectively. T/C (%)≤42% is considered as significant antitumor activity and <10% is considered as highly significant antitumor activity by the United States National Cancer Institute criteria.
Statistical Analysis: The tumor volume between different groups was analyzed by two-way repeated measures ANOVA followed by the Tukey's post hoc test. All data were analyzed using GraphPad Prism 6.0. P<0.05 is considered to be statistically significant.

[3] = Group 4: Compound A 20 mpk i.v. QD×3×2 weeks, day 35
[4] = Group 2: MMAE 0.25 mpk i.v. QW×2 weeks, day 35

## Cc1nnc(-c2ncccn2)nn1
[1]
  % TCO-MMAE consumed (1 h): 100%
  % MMAE released (24 h): 29%

## Cc1nnc(-c2cn(C)cn2)nn1
[1]
  % TCO-MMAE consumed (1 h): 74%
  % MMAE released (24 h): 40%

## Cc1nnc(-c2cocn2)nn1
[1]
  % TCO-MMAE consumed (1 h): 42%
  % MMAE released (24 h): 62%

## Cc1nnc(-c2ccc(C(F)(F)F)c(CN)c2)nn1
[1]
  % TCO-MMAE consumed (1 h): 100%
  % MMAE released (24 h): 46%

## Cc1nnc(-c2ccc(CN)c(C(F)(F)F)c2)nn1
[1]
  % TCO-MMAE consumed (1 h): 100%
  % MMAE released (24 h): 51%

## Cc1nnc(-c2ccccn2)nn1
[1]
  % TCO-MMAE consumed (1 h): 100%
  % MMAE released (24 h): 28%

## Cc1nnc(-n2cccn2)nn1
[1]
  % TCO-MMAE consumed (1 h): 81%
  % MMAE released (24 h): 35%

## CC[C@H](C)[C@@H](C(CC(=O)N1CCC[C@H]1[C@H](OC)[C@@H](C)C(=O)N[C@H](C)[C@@H](O)c1ccccc1)OC)N(C)C(=O)[C@@H](NC(=O)[C@H](C(C)C)N(C)C(=O)O[C@H]1/C=C/CC[C@@](C)(C(=O)O)CC1)C(C)C (stereo partly drawn) [Compound A]
[2]; [3]
  T/C: 62.12%
  TGI: 41.74%
[2]; Group 4: Compound A 20 mpk i.v. QD×3×2 weeks, day 35 after grouping
  mean tumor size on day 35: 653 mm^3

## CC[C@H](C)[C@@H]([C@@H](CC(=O)N1CCC[C@H]1[C@H](OC)[C@@H](C)C(=O)N[C@H](C)[C@@H](O)c1ccccc1)OC)N(C)C(=O)[C@@H](NC(=O)[C@@H](NC)C(C)C)C(C)C [MMAE] (H-[NMeV]V[Dil][Dolaproine]-X1)
[2]; [4]
  T/C: 57.50%
  TGI: 49.68%
[2]; Group 2: MMAE 0.25 mpk i.v. QW×2 weeks, day 35 after grouping
  mean tumor size on day 35: 586 mm^3

## T-DM1
[2]; Group 8: T-DM1 3 mpk i.v. QW×2 weeks, day 35
  mean tumor size on day 35: 873 mm^3
